Patent US11167037B2, “Antibody drug conjugate platform using bispecific antibody” (SEOUL NATIONAL UNIVERSITY R&DB FOUNDATION, priority 2016, dated 2021)
Residues, ends and D or L forms follow the SMILES beside them. Groups on a side chain read outwards from the residue. *: point of attachment. Biotin = O=C1N[C@H]2[C@H](CS[C@H]2CCCCC(=O)*)N1; X1 = CN1C(=O)C[C@H](C(=O)*)[C@H]1c1cccnc1; PEG6 = NCCOCCOCCOCCOCCOCCOCCC(=O)O

Legend:
A549 cells = assay: Cell viability assay (Cell Titer-Glo, 72 hrs); assay type: cell-based, human; settings: ATP content
Procedure: A549 cells were seeded in 50 μL RPMI-1640 medium in black-walled 96-well plates (4,000 cells per well) and allowed to adhere overnight at 37° C. in 5% CO2 and humidified atmosphere. […] The cotinine-duocarmycin and antibody dilutes in 50 μL medium were added to each well, and cultured for 72 hrs. After adding Cell Titer-Glo reagent (Promega Corp.) to each well, luminescence signals were measured using a microplate luminometer (PerkinElmer, Waltham, Mass., USA) according to the manufacturer's instructions. All experiments were conducted in triplicate. The relative cell viability was calculated by dividing by the control luminescence signal [% viability=(Test−Background)/(Control−Background)×100].

[1] = system: EGFR on the A549 cell surface; assay: Flow cytometry on A549 cells; assay type: cell-based, human
Procedure: A549 cells were seeded in a v-bottom 96-well plate (Corning) in the final concentration of 4×10^5 cells per each sample. […] After washing with the flow cytometry buffer, the cells were cultured with phycoerythrin (PE)-conjugated streptavidin (BD Biosciences Pharminogen, San Diego, Calif., USA) and FITC-conjugated anti-human IgG (Fc specific) antibody (Thermo Fisher Scientific Pierce) in the dark for 1 hr at 37° C. After additional washing with the same buffer, the cells were resuspended in 200 μL PBS, and analyzed through flow cytometry using FACS Canto II instrument equipped with a 488-nm laser (BD Bioscience, San Jose, Calif., USA). 10,000 cells per measurement were detected and data were analyzed with FlowJo software (TreeStar, Ashland, Oreg., USA).

[2] = mouse, in vivo
Procedure: Blood samples were collected from intra-orbital vein at 0, 1, 24, 48, 72, 96 and 168 hrs post-injection. The samples were left at the room temperature for 2 hrs until the blood coagulated. Subsequently, serum was acquired by centrifuging at 3500 rpm for 15 min at 4° C.
After washing with 0.05% PBST, HRP-conjugated streptavidin (Thermo Fisher Scientific Pierce) was added and cultured for 1 hr at 37° C. After washing, TMB was added to each well and the absorbance was measured at 650 nm.

A549 xenograft tumor = A549 xenograft tumor growth; assay type: in vivo, Balb/c-nude mice; settings: intraperitoneally for five weeks, n=4/group
Procedure: Six-week-old female Balb/c-nude mice were subcutaneously injected with the A549 (1×10^7 cells) on the left and right flank of each mouse. When the tumor volume reached approximate 150 mm^3, all animals were randomly divided into three groups (n=4/group) and treated for five weeks. […] Then, three times dose of the drugs were injected thrice a week for the following three weeks. Palivizumab was used as an isotype control of the bispecific antibody. DMSO was used as a vehicle control of cotinine-duocarmycin. The tumor volume was measured using digital calipers twice a week in 32 days after injection. Tumor volume was calculated as length×(width)^2×0.5, where the length is the longest axis and the width is the distance perpendicular to the length. Systemic toxicity was evaluated by measuring body weight twice a week. Mice were sacrificed on the day 35 after injection and tumors were dissected and weighted.
To evaluate the in vivo efficacy of ERC6-complexed cotinine-duocarmycin, cetuximab-refractory A549 cells were grafted to mice (n=4/group). […] Drugs were administered to the mice twice a week for two weeks, and then thrice a week for three weeks.

## COC(=O)c1cc2c([nH]1)C(=O)C=C1N(C(=O)c3cc4cc(OC)c(OC)c(OC)c4[nH]3)C[C@H]3C[C@]123 [free duocarmycin, duocarmycin, reference compound]
A549 cells
  cytotoxic / anti-proliferative effect (relative cell viability): stronger anti-tumor effect than the cotinine-duocarmycin

## CN1C(=O)C[C@H](C(=O)NCCCC[C@H](NC(=O)[C@H](CO)NC(=O)CNC(=O)CNC(=O)CNC(=O)CNC(=O)[C@H](CCCCNC(=O)CCOCCOCCOCCOCCOCCOCCNC(=O)CCCC[C@@H]2SC[C@@H]3NC(=O)N[C@@H]32)NC(=O)[C@H](CO)NC(=O)CNC(=O)CNC(=O)CNC(=O)CNC(=O)[C@H]2CC(=O)N(C)[C@@H]2c2cccnc2)C(=O)O)[C@H]1c1cccnc1 [cotinine-biotin, cotinine-GGGGSK[(dPEG6)-biotin]GGGGSK-cotinine] (X1-GGGGSK([PEG6-Biotin])GGGGSK(X1)-OH)
[1]; ERC6 present
  binding activity of cotinine-biotin to A549 cell (streptavidin-PE signal): showed the binding activity to the A549 cell
[1]; mixture with anti-cotinine IgG
  binding activity of cotinine-biotin to A549 cell (streptavidin-PE signal): did not produce any significant signal
[1]; mixture with cetuximab
  binding activity of cotinine-biotin to A549 cell (streptavidin-PE signal): did not produce any significant signal
[2]
  half-life: 33.4 min

## cotinine-[GSK(duocarmycin)]4K-cotinine [cotinine-duocarmycin]
A549 cells
  cytotoxic / anti-proliferative effect (relative cell viability): potent anti-proliferative effect
A549 xenograft tumor
  inhibition of tumor growth: could not be selectively delivered to the tumor site and inhibit the tumor growth
